Experimental data from US6737383B1, “Herbicidal oxadiazolidines” (priority 1999, dated 2004).

Experiments:
bermuda-grass = test: Test D bermudagrass; type: in vivo, Cynodon dactylon; settings: Preemergence, 0 to 100 scale
Description: (§1) Seeds, tubers, or plant parts of Alexandergrass (Brachiaria plantaginea), bermuda-grass (Cynodon dactylon), common pursiane (Portulaca oleracea), common ragweed (Ambrosia elatior), common groundsel (Senecio vulgaris), dallisgrass (Paspalum dilatatum), goosegrass (Eleusine indica), guineagrass (Panicum maximum), itchgrass (Rottboellia exaltata), Johnson grass (Sorghum halepense), large crabgrass (Digitaria sanguinalis), pitted morningglory (Ipomoea lacunosa), purple nutsedge (Cyperus rotundus), sandbur (Cenchrus echinatus), sourgrass (Trichachne insularis), Spanishneedles (Bidens bipinnata), surinam grass (Brachiaria decumbens) and tall mallow (Malva sylvestris) were planted into greenhouse pots of flats containing greenhouse planting medium. Plant species were grown in separate pots or individual compartments. Preemergence applications were made within one day of planting the seed or plant part.
(§2) Test chemicals were formulated in a non-phytotoxic solvent mixture which included a surfactant and applied preemergence to the surface of the pot containing seeds in a sandy loam soil. Untreated control pots and treated pots were placed in the greenhouse for growth and visually evaluated for injury 14 to 21 days after herbicide application. Plant response ratings, summarized in Table C, are based on a 0 to 100 scale where 0 is no injury and 100 is complete control. A dash (−) response means no test result.

common pursiane = test: Test D common purslane; type: in vivo, Portulaca oleracea
Description: as §1, §2

common ragweed = test: Test D common ragweed; type: in vivo, Ambrosia elatior; settings: Preemergence, 0 to 100 scale
Description: as §1, §2

common groundsel = test: Test D common groundsel; type: in vivo, Senecio vulgaris; settings: Preemergence, 0 to 100 scale
Description: as §1, §2

guineagrass = test: Test D guineagrass; type: in vivo, Panicum maximum; settings: Preemergence, 0 to 100 scale
Outline: (§3)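 Visual injury ratings, 0 = no injury to 100 = complete control, taken 14 to 21 days after treatment. Test chemicals were in a surfactant-containing non-phytotoxic solvent; preemergence treatments went onto the sandy loam surface of seeded greenhouse pots within one day of sowing.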

Johnson grass = test: Test D Johnson grass; type: in vivo, Sorghum halepense; settings: Preemergence, 0 to 100 scale
Outline: as §3

pitted morningglory = test: Test D pitted morningglory; type: in vivo, Ipomoea lacunosa; settings: Preemergence, 0 to 100 scale
Description: as §1
as §2, with “Plant response ratings, summarized in Table C, are based on a 0 to 100 scale where 0 is no injury and 100 is complete control.” left out

purple nutsedge = test: Test D purple nutsedge; type: in vivo, Cyperus rotundus; settings: Preemergence, 0 to 100 scale
Description: as §1, §2

Spanishneedles = test: Test D Spanishneedles; type: in vivo, Bidens bipinnata; settings: Preemergence, 0 to 100 scale
Description: as §1, §2

surinam grass = test: Test D surinam grass; type: in vivo, Brachiaria decumbens; settings: Preemergence, 0 to 100 scale
Outline: as §3

tall mallow = test: Test D tall mallow; type: in vivo, Malva sylvestris; settings: Preemergence, 0 to 100 scale
Description: as §1, §2

[1] = Rate 32 g/ha, 0 no injury, 100 complete control
[2] = Rate 64 g/ha, 0 no injury, 100 complete control
[3] = Rate 125 g/ha, 0 no injury, 100 complete control
[4] = Rate 32 g/ha; Preemergence; 0 to 100 scale, 0 no injury, 100 complete control
[5] = Rate 64 g/ha, Preemergence; 0 to 100 scale, 0 no injury, 100 complete control
[6] = Rate 125 g/ha, Preemergence; 0 to 100 scale, 0 no injury, 100 complete control
[7] = Rate 250 g/ha; Preemergence; 0 to 100 scale
[8] = Rate 16 g/ha, 0 no injury, 100 complete control

Cc1cccc(C)c1-n1c(=O)on(C(=O)N(c2ccc(F)cc2F)C(C)C)c1=O [Compound 28]
65: Plant response rating, Guineagrass (guineagrass; [2]) | Surinam grass plant response rating (surinam grass; [3])
0: Plant response rating, C. purslane (common pursiane; [4]) | Plant response rating, C. purslane (common pursiane; [5]) | Plant response rating, C. purslane (common pursiane; [6]) | Plant response rating, C. purslane (common pursiane; [7]) | Plant response rating, C. ragweed (common ragweed; [1]) | Plant response rating, C. ragweed (common ragweed; [2]) | Plant response rating, C. ragweed (common ragweed; [3]) | Plant response rating, C. ragweed (common ragweed; Rate 250 g/ha) | Plant response rating, Com. groundsel (common groundsel; [1]) | Plant response rating, Com. groundsel (common groundsel; [2]) | Plant response rating, Com. groundsel (common groundsel; [3]) | Plant response rating, Com. groundsel (common groundsel; Rate 250 g/ha) | Plant response rating Johnsongrass (Johnson grass; [1]) | Plant response rating Johnsongrass (Johnson grass; [2]) | Plant response rating Johnsongrass (Johnson grass; [3]) | Plant response rating Johnsongrass (Johnson grass; Rate 250 g/ha) | Plant response rating, P. morninglory (pitted morningglory; [1]) | Plant response rating, P. morninglory (pitted morningglory; [2]) | Plant response rating, P. morninglory (pitted morningglory; [3]) | Plant response rating, P. morninglory (pitted morningglory; Rate 250 g/ha) | Plant response rating, Purple nutsedge (purple nutsedge; [1]) | Purple nutsedge plant response rating (purple nutsedge; [2]) | Purple nutsedge plant response rating (purple nutsedge; [3]) | Plant response rating, Purple nutsedge (purple nutsedge; Rate 250 g/ha) | Plant response rating, Spanishneedles (Spanishneedles; [1]) | Plant response rating, Surinam grass (surinam grass; [1]) | Surinam grass plant response rating (surinam grass; [2]) | Plant response rating, Tall Mallow (tall mallow; [1]) | Tall Mallow plant response rating (tall mallow; [2]) | Tall Mallow plant response rating (tall mallow; [3]) | Plant response rating, Tall Mallow (tall mallow; Rate 250 g/ha)
60: Spanishneedles plant response rating (Spanishneedles; [2])
98: Plant response rating, Guineagrass (guineagrass; Rate 250 g/ha)
85: Plant response rating, Bermudagrass (bermuda-grass; [1])
40: Plant response rating, Guineagrass (guineagrass; [1])
75: Plant response rating, Guineagrass (guineagrass; [3]) | Spanishneedles plant response rating (Spanishneedles; [3]) | Plant response rating, Surinam grass (surinam grass; Rate 250 g/ha)
100: Plant response rating, Bermudagrass (bermuda-grass; [2]) | Plant response rating, Bermudagrass (bermuda-grass; [3]) | Plant response rating, Bermudagrass (bermuda-grass; Rate 250 g/ha)

CCn1c(=O)on(C(=O)N(c2ccc(F)cc2)C(C)C)c1=O [Compound 107]
20: Plant response rating Johnsongrass (Johnson grass; [8]) | Purple nutsedge plant response rating (purple nutsedge; [2]) | Spanishneedles plant response rating (Spanishneedles; [3])
85: Plant response rating, Bermudagrass (bermuda-grass; [8]) | Plant response rating, C. ragweed (common ragweed; [3]) | Plant response rating Johnsongrass (Johnson grass; [1]) | Plant response rating, Purple nutsedge (purple nutsedge; Rate 250 g/ha) | Plant response rating, Purple nutsedge (purple nutsedge; Rate 500 g/ha)
40: Plant response rating, Com. groundsel (common groundsel; [8])
65: Plant response rating, Guineagrass (guineagrass; [8]) | Purple nutsedge plant response rating (purple nutsedge; [3])
30: Plant response rating, P. morninglory (pitted morningglory; [2]) | Plant response rating, P. morninglory (pitted morningglory; [3]) | Plant response rating, Surinam grass (surinam grass; [8])
75: Plant response rating, Com. groundsel (common groundsel; [1]) | Plant response rating, Guineagrass (guineagrass; [1]) | Plant response rating, P. morninglory (pitted morningglory; Rate 250 g/ha) | Plant response rating, Surinam grass (surinam grass; [1])
98: Plant response rating, Com. groundsel (common groundsel; [2]) | Plant response rating Johnsongrass (Johnson grass; Rate 250 g/ha) | Plant response rating, Tall Mallow (tall mallow; Rate 250 g/ha)
0: Plant response rating, C. purslane (common pursiane; Rate 16 g/ha; Preemergence; 0 to 100 scale, 0 no injury, 100 complete control) | Plant response rating, C. purslane (common pursiane; [4]) | Plant response rating, C. purslane (common pursiane; [5]) | Plant response rating, C. purslane (common pursiane; [6]) | Plant response rating, C. purslane (common pursiane; [7]) | Plant response rating, C. purslane (common pursiane; Rate 500 g/ha; Preemergence; 0 to 100 scale) | Plant response rating, C. ragweed (common ragweed; [8]) | Plant response rating, C. ragweed (common ragweed; [1]) | Plant response rating, C. ragweed (common ragweed; [2]) | Plant response rating, P. morninglory (pitted morningglory; [8]) | Plant response rating, P. morninglory (pitted morningglory; [1]) | Plant response rating, Purple nutsedge (purple nutsedge; [8]) | Plant response rating, Purple nutsedge (purple nutsedge; [1]) | Plant response rating, Spanishneedles (Spanishneedles; [8]) | Plant response rating, Spanishneedles (Spanishneedles; [1]) | Spanishneedles plant response rating (Spanishneedles; [2]) | Plant response rating, Tall Mallow (tall mallow; [8]) | Plant response rating, Tall Mallow (tall mallow; [1]) | Tall Mallow plant response rating (tall mallow; [2])
90: Plant response rating Johnsongrass (Johnson grass; [2]) | Plant response rating Johnsongrass (Johnson grass; [3]) | Tall Mallow plant response rating (tall mallow; [3])
100: Plant response rating, Bermudagrass (bermuda-grass; [1]) | Plant response rating, Bermudagrass (bermuda-grass; [2]) | Plant response rating, Bermudagrass (bermuda-grass; [3]) | Plant response rating, Bermudagrass (bermuda-grass; Rate 250 g/ha) | Plant response rating, Bermudagrass (bermuda-grass; Rate 500 g/ha) | Plant response rating, C. purslane (common pursiane; Rate 500 g/ha, Preemergence; 0 to 100 scale) | Plant response rating, C. ragweed (common ragweed; Rate 250 g/ha) | Plant response rating, C. ragweed (common ragweed; Rate 500 g/ha) | Plant response rating, Com. groundsel (common groundsel; [3]) | Plant response rating, Com. groundsel (common groundsel; Rate 250 g/ha) | Plant response rating, Com. groundsel (common groundsel; Rate 500 g/ha) | Plant response rating, Guineagrass (guineagrass; [2]) | Plant response rating, Guineagrass (guineagrass; [3]) | Plant response rating, Guineagrass (guineagrass; Rate 250 g/ha) | Plant response rating, Guineagrass (guineagrass; Rate 500 g/ha) | Plant response rating Johnsongrass (Johnson grass; Rate 500 g/ha) | Plant response rating, P. morninglory (pitted morningglory; Rate 500 g/ha) | Plant response rating, Spanishneedles (Spanishneedles; Rate 500 g/ha) | Surinam grass plant response rating (surinam grass; [2]) | Surinam grass plant response rating (surinam grass; [3]) | Plant response rating, Surinam grass (surinam grass; Rate 250 g/ha) | Plant response rating, Surinam grass (surinam grass; Rate 500 g/ha) | Plant response rating, Tall Mallow (tall mallow; Rate 500 g/ha)

C=C(C)Cn1c(=O)on(C(=O)N(c2ccc(F)cc2)C(C)C)c1=O [Compound 139]
0: Plant response rating, C. purslane (common pursiane; [5]) | Plant response rating, C. ragweed (common ragweed; [2]) | Plant response rating, Com. groundsel (common groundsel; [2]) | Purple nutsedge plant response rating (purple nutsedge; [2])
65: Plant response rating, Guineagrass (guineagrass; [2])
10: Plant response rating Johnsongrass (Johnson grass; [2])
20: Spanishneedles plant response rating (Spanishneedles; [2]) | Surinam grass plant response rating (surinam grass; [2]) | Tall Mallow plant response rating (tall mallow; [2])
98: Plant response rating, Bermudagrass (bermuda-grass; [2])
30: Plant response rating, P. morninglory (pitted morningglory; [2])
